From patent US12590062B2, “PD-1/PD-L1 inhibitors” (Gilead Sciences, Inc., priority 2017, dated 2026)

Experiments:
[1] = molecular target: PD-1/PD-L1 (Homo sapiens, UniProt Q9NZQ7); assay: PD-1/PD-L1 biochemical protein-protein interaction assay (ALPHA); assay type: binding; details: 0.3 nM His tagged PD-L1, 2.5 nM biotinylated Fc-PD-1, 60 minutes at 25° C., read-out: IC50 PD-L1-PD-1 Alpha IC50-mono PD-L1-fcP-D1
Method in brief: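 ALPHA bead proximity assay of extracellular domains: 0.3 nM His-PD-L1 with 2.5 nM biotinylated Fc-PD-1 in 25 mM Hepes pH 7.4, 150 mM NaCl, 3.4 mM EDTA, 0.005% Tween 20, 0.01% BSA, 60 min at 25 °C. Anti-His acceptor and streptavidin donor beads added; IC50 from four-parameter fit of signal loss.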

[2] = molecular target: T1, PD-1/PD-L1 interaction (Homo sapiens, UniProt Q9NZQ7); assay: PD-1/PD-L1 NFAT reporter co-culture assay; assay type: cell-based; details: Jurkat PD-1 NFAT-luciferase cells co-cultured with aAPC-PD-L1 CHO cells, 6 hrs at 37° C.; read-out: EC50 NFAT Luciferase
T1 construct: expressed in transfected cells; host or cells: CHO cells (aAPC-PD-L1) co-cultured with Jurkat cells overexpressing PD-1 and an NFAT-luciferase reporter
T1 sequence (Q9NZQ7 19-290): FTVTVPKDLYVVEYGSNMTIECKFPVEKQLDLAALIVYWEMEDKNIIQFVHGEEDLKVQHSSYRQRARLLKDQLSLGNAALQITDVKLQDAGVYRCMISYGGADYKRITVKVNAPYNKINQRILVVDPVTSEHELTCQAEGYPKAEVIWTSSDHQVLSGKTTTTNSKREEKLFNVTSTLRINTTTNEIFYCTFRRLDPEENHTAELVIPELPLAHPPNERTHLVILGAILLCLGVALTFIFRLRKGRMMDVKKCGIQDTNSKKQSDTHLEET
Method in brief: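 Compounds are scored by restoration of NFAT-luciferase signal in PD-1-expressing Jurkat cells cultured 6 h at 37 °C on CHO cells presenting anti-CD3 and PD-L1; EC50 values derive from four-parameter curve fitting.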

[3] = molecular target: T2, PD-L1 (Homo sapiens, UniProt Q9NZQ7); assay: PD-L1/PD-L1 dimerization biochemical protein-protein interaction assay (ALPHA); assay type: binding; details: compound-induced PD-L1 dimerization, head prints '1 nM' (0.5 nM His-tagged PD-L1 and 0.5 nM FLAG-tagged PD-L1), read-out: AC50 PDL1 Dimer Alpha 1 nM
T2 construct: determine if they can specifically dimerize the extracellular domains of PD-L1
T2 sequence (Q9NZQ7 19-238 limits assumed): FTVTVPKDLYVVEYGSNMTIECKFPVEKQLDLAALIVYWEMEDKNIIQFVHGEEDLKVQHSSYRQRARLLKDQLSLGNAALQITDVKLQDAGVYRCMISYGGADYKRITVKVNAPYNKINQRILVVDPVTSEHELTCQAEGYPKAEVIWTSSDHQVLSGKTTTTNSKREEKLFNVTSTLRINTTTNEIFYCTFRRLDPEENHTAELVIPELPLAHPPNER
T2 sequence (Q9NZQ7 19-238 limits assumed): as above
Method in brief: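 ALPHA proximity assay of compound-induced dimerization of 0.5 nM His-tagged and 0.5 nM FLAG-tagged PD-L1 extracellular domains in Hepes pH 7.4 buffer, 2 h at 25 °C. Anti-His acceptor then anti-FLAG donor beads, 60 min each; AC50 from four-parameter fit.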

Sequence of PD-1/PD-L1 (Q9NZQ7 19-238 limits assumed): as above

Compound | IC50 [1] | EC50 [2] | AC50 [3]
COc1nc(-c2cccc(-c3cccc(-c4ccc5[nH]c(CN(C)C)cc5c4)c3Cl)c2Cl)ccc1CNC[C@@H]1CCC(=O)N1 [Example 606] | 6.23 nM | ≥ 50000 nM | 558 nM
COc1nc(O[C@H]2CCc3c(-c4cccc(-c5ccc(CNC[C@@H]6CCC(=O)N6)cc5)c4Cl)cccc32)c(Cl)cc1CN1CCC[C@@H]1C(=O)O [Example 724] | 0.064 nM | 120 nM | 21.2 nM
Cc1c(COc2cc(OCc3cncc(C#N)c3)c(CNC(C)(CO)C(=O)O)cc2Cl)cccc1-c1cccc(-c2ccc(CN3CCC4(CC3)CNC4=O)cc2)c1C (stereo not drawn) [Example 443] | 0.064 nM | 276 nM | 154 nM
Cc1c(COc2cc(OCc3cncc(C#N)c3)c(CNC[C@@H]3CCC(=O)N3)cc2Cl)cccc1-c1cccc(-c2ccc(CNC[C@@H]3CCC(=O)N3)cc2)c1C [Example 497] | 1.43 nM | 182 nM | 302 nM
COc1nc(O[C@H]2CCc3c(-c4cccc(-c5cc(C)c(CNC[C@@H]6CCC(=O)N6)c(OC)n5)c4Cl)cccc32)c(Cl)cc1CN1CC[C@@H](C(=O)O)C1 [Example 490] | 0.064 nM | 19 nM | 14.1 nM
CC(=O)N1CC2(CN(Cc3cn(C)c4nc(-c5cccc(-c6cccc(-c7cnc8c(CN9CC%10(C9)CN(C(C)=O)C%10)cn(C)c8n7)c6Cl)c5Cl)cnc34)C2)C1 [Example 587] | 0.145 nM | 45 nM | 324 nM
Cc1c(COc2cc(OCc3cncc(C#N)c3)c(CN[C@@](C)(CO)C(=O)O)cc2Cl)cccc1-c1cccc(-c2cnc3c(Cl)cc(CN[C@@](C)(CO)C(=O)O)cc3c2)c1C [Example 296, (S)-2-(((3-(3′-((4-((((S)-2-carboxy-1-hydroxypropan-2-yl)amino)methyl)-2-chloro-5-((5-cyanopyridin-3-yl)methoxy)phenoxy)methyl)-2,2′-dimethyl-[1,1′-biphenyl]-3-yl)-8-chloroquinolin-6-yl)methyl)amino)-3-hydroxy-2-methylpropanoic acid] | 0.064 nM | 844 nM | 108 nM
COc1nc(O[C@H]2CCc3c(-c4cccc(-c5cc(C)c(CNC[C@@H]6CCC(=O)N6)c(OC)n5)c4Cl)cccc32)c(Cl)cc1CNC[C@@H]1CCC(=O)N1 [Example 591] | 0.064 nM | 20 nM | 22.7 nM

Continued, values first:

IC50 [1] | EC50 [2] | AC50 [3] | Compound
0.716 nM | 152 nM | 74.7 nM | N#Cc1cncc(COc2nc(OCc3cccc(-c4cccc(-c5ccc6c(c5)C[C@@H](N)C6)c4Cl)c3Cl)c(Br)cc2CNC[C@@H](O)CC(=O)O)c1 [Example 552]
0.289 nM | 481 nM | 203 nM | Cc1c(COc2cc(OCc3cncc(C#N)c3)c(CN3CC[C@@H](O)C3)cc2Cl)cccc1-c1cccc(-c2ccc(CNCCCCC(=O)O)cc2)c1C [Example 333, (R)-5-(((3″-((2-chloro-5-((5-cyanopyridin-3-yl)methoxy)-4-((3-hydroxypyrrolidin-1-yl)methyl)phenoxy)methyl)-2′,2″-dimethyl-[1,1′:3′,1″-terphenyl]-4-yl)methyl)amino)pentanoic acid]
2.6 nM | ≥ 50000 nM | ≥ 10000 nM | CNCc1cc(Cl)c(O[C@H]2CCc3c(-c4cccc(-c5ccc(OCCN6CC[C@@H](O)C6)cc5)c4Cl)cccc32)nc1OCc1cncc(S(C)(=O)=O)c1 [Example 664]
0.321 nM | 200 nM | 61.3 nM | CS(=O)(=O)c1cncc(COc2nc(OCc3cccc(-c4cccc(-c5ccc(OCCNCCO)cc5)c4Cl)c3Cl)c(Cl)cc2CNC[C@@H](O)CC(=O)O)c1 [Example 485]
0.064 nM | 26 nM | 21.6 nM | C[C@@](CO)(NCc1cc(Cl)c(O[C@H]2CCc3c(-c4cccc(-c5ccc6c(c5)C[C@H](N)C6)c4Cl)cccc32)nc1OCc1cncc(C#N)c1)C(=O)O [Example 695]
0.064 nM | 544 nM | 77.8 nM | CNC(=O)COc1cc(-c2cccc(-c3cccc(COc4cc(OCc5cncc(C#N)c5)c(CNC[C@@H](O)CC(=O)O)cc4Cl)c3C)c2C)ccc1C1=NCCN1 [Example 436]
